According to US8969622B2, “Dendritic molecular intracellular transporters and methods of making and using same” (Vanderbilt University, priority 2006, dated 2015):

System: human microvascular endothelial cells (HMEC)
Assay: Internalization into human microvascular endothelial cells (HMEC), temperature effect and controls
Type: cell-based
Settings: 10 uM, 60 min, 37° C.
Procedure: The human microvascular endothelial cells (HMEC) cells were incubated with conjugates (10 uM) for 2.5 min at 4° C. or at 37° C.
The HMEC cells were incubated with conjugates (1 uM) for 30 min at 4° C. or at 37° C.
(b) The HMEC cells were incubated with Boc-protected guanidinylated FD-2 (10 uM) for 60 min at 37° C.
Internalization of FD-1 and FD-2 in mammalian cells was assessed using two different cell lines and a previously described method [Futaki, S.; Nakase, I.; Suzuki, T.; Youjun, Y.; Sugiura, Y. Biochemistry 2002, 41, 7925.] with NIH-3T3 fibroblasts and HMEC (human microvascular endothelial cells) and a Zeiss LSM 510 confocal microscope. […] [Futaki, S.; Nakase, I.; Suzuki, T.; Youjun, Y.; Sugiura, Y. Biochemistry 2002, 41, 7925.; Vivès, E.; Brodin, P.; Lebleu, B. J. Biol. Chem. 1997, 272, 16010.] Furthermore, the extent of internalization increased in an incubation time-dependent manner, and it was observed that after just 10 min, the fluorescence intensity of cells treated with FD-2 was near saturation. […] Without wishing to be bound by theory, it is believed that the length of the spacer at the terminal generation of the dendrimer can not only control the uptake rate, [Wender, P. A.; Kreider, E.; Pelkey, E. T.; Steinman, L.; Rothbard, J. B.; VanDeusen, C. L. Org. Lett. 2005, 7, 4815.] but also regulate the subcellular localization of the molecule and its putative cargo. […]

Substance: fluorescein isothiocyanate [free FITC]
- fluorescence of treated cells (control experiments): no
